Assay results as given in PubChem BioAssay (NCI).
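GI50 marks 50% less growth. TGI is the concentration that stops growth completely.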

How the values were obtained:
Experiment in all cases: NCI tumour cell line growth inhibition, 384-well format
786-0 renal = system: 786-0 renal
A498 renal = system: A498 renal
A549 NSCLC = system: A549 NSCLC
ACHN renal = system: ACHN renal
BT-549 breast = system: BT-549 breast
CAKI-1 renal = system: CAKI-1 renal
CCRF-CEM leukemia = system: CCRF-CEM leukemia
COLO 205 colon = system: COLO 205 colon
DU-145 prostate = system: DU-145 prostate
EKVX NSCLC = system: EKVX NSCLC
HCC-2998 colon = system: HCC-2998 colon
HCT-116 colon = system: HCT-116 colon
HCT-15 colon = system: HCT-15 colon
HL-60(TB) leukemia = system: HL-60(TB) leukemia
HOP-62 NSCLC = system: HOP-62 NSCLC
HOP-92 NSCLC = system: HOP-92 NSCLC
HS 578T breast = system: HS 578T breast
HT29 colon = system: HT29 colon
IGROV1 ovarian = system: IGROV1 ovarian
K-562 leukemia = system: K-562 leukemia
KM12 colon = system: KM12 colon
LOX IMVI melanoma = system: LOX IMVI melanoma
M14 melanoma = system: M14 melanoma
MALME-3M melanoma = system: MALME-3M melanoma
MCF7 breast = system: MCF7 breast
MDA-MB-231 breast = system: MDA-MB-231 breast
MDA-MB-435 melanoma = system: MDA-MB-435 melanoma
MDA-MB-468 breast = system: MDA-MB-468 breast
MOLT-4 leukemia = system: MOLT-4 leukemia
NCI-H226 lung = system: NCI-H226 lung
NCI-H23 lung = system: NCI-H23 lung
NCI-H322M lung = system: NCI-H322M lung
NCI-H460 NSCLC = system: NCI-H460 NSCLC
NCI-H522 lung = system: NCI-H522 lung
NCI/ADR-RES ovarian = system: NCI/ADR-RES ovarian
OVCAR-3 ovarian = system: OVCAR-3 ovarian
OVCAR-4 ovarian = system: OVCAR-4 ovarian
OVCAR-8 ovarian = system: OVCAR-8 ovarian
PC-3 prostate = system: PC-3 prostate
RPMI-8226 leukemia = system: RPMI-8226 leukemia
SF-268 CNS = system: SF-268 CNS
SF-295 CNS = system: SF-295 CNS
SF-539 CNS = system: SF-539 CNS
SK-MEL-28 melanoma = system: SK-MEL-28 melanoma
SK-MEL-5 melanoma = system: SK-MEL-5 melanoma
SK-OV-3 ovarian = system: SK-OV-3 ovarian
SN12C renal = system: SN12C renal
SNB-19 CNS = system: SNB-19 CNS
SNB-75 CNS = system: SNB-75 CNS
SR leukemia = system: SR leukemia
SW-620 colon = system: SW-620 colon
T-47D breast = system: T-47D breast
TK-10 renal = system: TK-10 renal
U251 glioblastoma = system: U251 glioblastoma
UACC-257 melanoma = system: UACC-257 melanoma
UACC-62 melanoma = system: UACC-62 melanoma
UO-31 renal = system: UO-31 renal

C[C@@H]1COCCN1c1cc(C2([S@@](C)(=N)=O)CC2)nc(-c2ccnc3[nH]ccc23)n1
GI50 ([…]-0 renal): 2.32 µM
TGI (786-0 renal): 12.1 µM
GI50 (A498 renal): 1.12 µM
TGI (A498 renal): 3.92 µM
GI50 (A549 NSCLC): 3.93 µM
TGI (A549 NSCLC): 36.5 µM
GI50 (ACHN renal): 2.03 µM
TGI (ACHN renal): 17.5 µM
GI50 (BT-549 breast): 1.98 µM
TGI (BT-549 breast): 7.43 µM
GI50 (CAKI-1 renal): 3.87 µM
TGI (CAKI-1 renal): 29.6 µM
GI50 (CCRF-CEM leukemia): 0.902 µM
TGI (CCRF-CEM leukemia): 2.26 µM
GI50 (COLO 205 colon): 9.01 µM
TGI (COLO 205 colon): 62.6 µM
GI50 (DU-145 prostate): 3.82 µM
TGI (DU-145 prostate): > 100 µM
GI50 (EKVX NSCLC): 9.1 µM
TGI (EKVX NSCLC): 69.1 µM
GI50 (HCC-2998 colon): 1.1 µM
TGI (HCC-2998 colon): 5.38 µM
GI50 (HCT-116 colon): 3.27 µM
TGI (HCT-116 colon): 56.5 µM
GI50 (HCT-15 colon): 4.48 µM
TGI (HCT-15 colon): > 100 µM
GI50 (HL-60(TB) leukemia): 1.98 µM
TGI (HL-60(TB) leukemia): 3.68 µM
GI50 (HOP-62 NSCLC): 2.15 µM
TGI (HOP-62 NSCLC): 9.45 µM
GI50 (HOP-92 NSCLC): 3.02 µM
TGI (HOP-92 NSCLC): 13.1 µM
GI50 (HS 578T breast): 1.22 µM
TGI (HS 578T breast): 3.37 µM
GI50 (HT29 colon): 4.65 µM
TGI (HT29 colon): 26.9 µM
GI50 (IGROV1 ovarian): 3.47 µM
TGI (IGROV1 ovarian): 32.9 µM
GI50 (K-562 leukemia): 3.3 µM
TGI (K-562 leukemia): 12 µM
GI50 (KM12 colon): 1.8 µM
TGI (KM12 colon): 27.1 µM
GI50 (LOX IMVI melanoma): 3.43 µM
TGI (LOX IMVI melanoma): 14 µM
GI50 (M14 melanoma): 2.44 µM
TGI (M14 melanoma): 9.06 µM
GI50 (MALME-3M melanoma): 3.72 µM
TGI (MALME-3M melanoma): 23.6 µM
GI50 (MCF7 breast): 1.27 µM
TGI (MCF7 breast): > 100 µM
GI50 (MDA-MB-231 breast): 6.06 µM
TGI (MDA-MB-231 breast): > 100 µM
GI50 (MDA-MB-435 melanoma): 7.48 µM
TGI (MDA-MB-435 melanoma): > 100 µM
GI50 (MDA-MB-468 breast): 5.01 µM
TGI (MDA-MB-468 breast): 27.3 µM
GI50 (MOLT-4 leukemia): 1.35 µM
TGI (MOLT-4 leukemia): 2.68 µM
GI50 (NCI-H226 lung): 16.1 µM
TGI (NCI-H226 lung): 77 µM
GI50 (NCI-H23 lung): 1.97 µM
TGI (NCI-H23 lung): 5.21 µM
GI50 (NCI-H322M lung): 1.78 µM
TGI (NCI-H322M lung): 7.77 µM
GI50 (NCI-H460 NSCLC): 1.38 µM
TGI (NCI-H460 NSCLC): 10.5 µM
GI50 (NCI-H522 lung): 10.8 µM
TGI (NCI-H522 lung): > 100 µM
GI50 (NCI/ADR-RES ovarian): 61.8 µM
TGI (NCI/ADR-RES ovarian): > 100 µM
GI50 (OVCAR-3 ovarian): 4.62 µM
TGI (OVCAR-3 ovarian): > 100 µM
GI50 (OVCAR-4 ovarian): 5.37 µM
TGI (OVCAR-4 ovarian): 75.1 µM
GI50 (OVCAR-8 ovarian): 7.62 µM
TGI (OVCAR-8 ovarian): 32.2 µM
GI50 (PC-3 prostate): 7.65 µM
TGI (PC-3 prostate): > 100 µM
GI50 (RPMI-8226 leukemia): 1.82 µM
TGI (RPMI-8226 leukemia): 4.28 µM
GI50 (SF-268 CNS): 5.75 µM
TGI (SF-268 CNS): 95.7 µM
GI50 (SF-295 CNS): 2.68 µM
TGI (SF-295 CNS): 13.7 µM
GI50 (SF-539 CNS): 2.16 µM
TGI (SF-539 CNS): 6.4 µM
GI50 (SK-MEL-28 melanoma): 23.8 µM
TGI (SK-MEL-28 melanoma): > 100 µM
GI50 (SK-MEL-5 melanoma): 7.66 µM
TGI (SK-MEL-5 melanoma): 25 µM
GI50 (SK-OV-3 ovarian): 3.29 µM
TGI (SK-OV-3 ovarian): 41.8 µM
GI50 (SN12C renal): 4.3 µM
TGI (SN12C renal): 50.1 µM
GI50 (SNB-19 CNS): 9.29 µM
TGI (SNB-19 CNS): > 100 µM
GI50 (SNB-75 CNS): 3.9 µM
TGI (SNB-75 CNS): 51.8 µM
GI50 (SR leukemia): 0.0145 µM
TGI (SR leukemia): 0.244 µM
GI50 (SW-620 colon): 10.6 µM
TGI (SW-620 colon): > 100 µM
GI50 (T-47D breast): 14.7 µM
TGI (T-47D breast): > 100 µM
GI50 (TK-10 renal): 1.83 µM
TGI (TK-10 renal): 6.26 µM
GI50 (U251 glioblastoma): 5.72 µM
TGI (U251 glioblastoma): > 100 µM
GI50 (UACC-257 melanoma): 41.3 µM
TGI (UACC-257 melanoma): > 100 µM
GI50 (UACC-62 melanoma): 4.45 µM
TGI (UACC-62 melanoma): 64.9 µM
GI50 (UO-31 renal): 4.47 µM
TGI (UO-31 renal): > 100 µM
